Assays:
[1] = system: croton oil induced inflammation on the mouse ear; assay: effect of repeated topical application on anti-inflammatory properties in the croton oil induced inflammation test; type: in vivo, albino mouse (Alderley Park Strain); settings: single application immediately after croton oil; rate approximately 4 × IC50
[2] = system: croton oil induced inflammation on the mouse ear; assay: as above; type: in vivo, albino mouse (Alderley Park Strain); settings: for Percentage reduction in croton oil induced inflammation, Four Applns: four applications (3, 2, 1 day before and immediately after croton oil), rate approximately 4 × IC50
Excerpt: (b) An indication of the effect of repeated topical application of a test compound on its anti-inflammatory properties was obtained as follows:
first application received 3 days before croton oil;
second application received 2 days before croton oil;
third application received 1 day before croton oil; and
fourth application received immediately after croton oil.

[3] = system: croton oil induced inflammation on the mouse ear; assay: croton oil induced inflammation test on the mouse ear, single topical application; type: in vivo, albino mouse (Alderley Park Strain); settings: 4 hours after croton oil
Description: A 4% v/v solution of croton oil in (acetone) was prepared. A portion (10 μl.) of this solution was applied to the right ear of an albino mouse (Alderley Park Strain, specific pathogen free). This was followed by immediate application of a portion (10 μl.) of a solution of test compound in ethanol to the same ear of the mouse. This procedure was repeated for a total of ten mice.
After 4 hours the mice were sacrificed and both ears from each mouse were removed and weighed. The increase in weight of the right over the left ear for each mouse was then determined and an average obtained for the group as a whole. […] The percentage inhibition of croton oil induced inflammation was then calculated for the test compound.

[4] = system: croton oil induced inflammation on the mouse ear; settings: known from earlier patent publications (UK 1591618); cited from earlier work

Compound	Percentage reduction in croton oil induced inflammation, Single Appln [1] [%]	Percentage reduction in croton oil induced inflammation, Four Applns [2] [%]	IC50 (amount of test compound per ear which inhibited the inflammation by 50%) [3] [μg/ear]	topical anti-inflammatory properties [4]	reduction in topical anti-inflammatory properties after repeated topical applications ([2]; two or more / several topical applications spaced over several days)
CC(C)(CNC(=O)c1cc(Cl)ccn1)NCC(O)c1ccc(OC(=O)C(C)(C)C)c(OC(=O)C(C)(C)C)c1 (centres unmarked) [4-chloro-2-pyridyl]	68	33	7	–	–
CC(C)(CNC(=O)c1cccs1)NCC(O)c1ccc(OC(=O)C(C)(C)C)c(OC(=O)C(C)(C)C)c1 (centres unmarked) [Example 2-thienyl]	71	33	7	–	–
CC(C)(CNC(=O)c1ccoc1)NCC(O)c1ccc(OC(=O)C(C)(C)C)c(OC(=O)C(C)(C)C)c1 (centres unmarked) [Example 3-furyl]	65	45	2	–	–
CC(C)(CNC(=O)c1ccco1)NCC(O)c1ccc(OC(=O)C(C)(C)C)c(OC(=O)C(C)(C)C)c1 (centres unmarked) [Example 7, 4-(1-hydroxy-2-[2-(2-furylcarboxyamido)-1,1-dimethyl-ethylamino]ethyl)catechol dipivaloyl ester]	60	64	13	–	–
CC(C)(CNC(=O)c1cc2ccccc2o1)NCC(O)c1ccc(OC(=O)C(C)(C)C)c(OC(=O)C(C)(C)C)c1 (centres unmarked) [Example 8, 4-(1-hydroxy-2-[1,1-dimethyl-2-(2-benzo[b]furyl-carboxamido)ethylamino]ethyl)catechol dipivaloyl ester]	61	59	11	–	–
CC(C)(CNC(=O)c1cc2ccccc2s1)NCC(O)c1ccc(OC(=O)C(C)(C)C)c(OC(=O)C(C)(C)C)c1 (centres unmarked) [Example 9, 4-(1-hydroxy-2-[1,1-dimethyl-2-(2-benzo[b]thienylcarboxamido)ethylamino]ethyl)catechol dipivaloyl ester]	64	65	23	–	–
CC(C)(CNCC(O)c1ccc(OC(=O)C(C)(C)C)c(OC(=O)C(C)(C)C)c1)NC(=O)COc1ccccc1 (centres unmarked) [phenoxymethyl, 4-(1-hydroxy-2-[2-methyl-2-(phenoxyacetamido)-propylamino]ethyl)catechol dipivaloyl ester]	60	23	2.5	potent topical anti-inflammatory properties	significant reduction in topical anti-inflammatory properties
